Patent US6670339B1, “Use of sulfated oligosaccharides in lowering blood triglyceride levels” (The Australian National University, priority 1997, dated 2003)

Columns and labels:
[1] = target: T1, bovine milk lipoprotein lipase (Bos taurus, UniProt P11151); experiment: Inhibition of binding of biotinylated heparin/heparan sulfate to immobilised lipoprotein lipase
T1 construct: purified from bovine milk as previously described; from tissue; host or cells: bovine milk
T1 sequence (P11151 29-478): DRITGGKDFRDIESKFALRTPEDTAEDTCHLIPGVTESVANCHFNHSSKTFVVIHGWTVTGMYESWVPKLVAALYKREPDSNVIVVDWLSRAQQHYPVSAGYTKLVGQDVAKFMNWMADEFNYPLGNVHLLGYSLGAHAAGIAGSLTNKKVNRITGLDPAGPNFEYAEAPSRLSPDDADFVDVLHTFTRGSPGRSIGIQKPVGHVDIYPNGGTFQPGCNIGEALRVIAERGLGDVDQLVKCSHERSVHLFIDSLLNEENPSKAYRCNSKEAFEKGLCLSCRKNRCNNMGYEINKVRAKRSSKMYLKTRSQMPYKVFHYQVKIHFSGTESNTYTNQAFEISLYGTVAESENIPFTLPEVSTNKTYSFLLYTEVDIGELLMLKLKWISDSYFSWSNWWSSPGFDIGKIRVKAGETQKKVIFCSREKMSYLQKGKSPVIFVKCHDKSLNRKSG
Method: As a more rapid and direct means of measuring the ability of different sulfated oligosaccharides to release lipoprotein lipase from the endothelium, an in vitro assay for this effect was developed. The assay involved immobilising lipoprotein lipase (10 μg/ml in PBS, 15 hr, 4° C.), purified from bovine milk as previously described^12, in 96 well plastic microplates (50 μl/well). Non-specific binding sites were then blocked by the addition of 200 μl/well of PBS containing 1% (w/v) bovine serum albumin (BSA) for 2 hr at 4° C. Following three washes with 200 μl/well of PBS/0.05% Tween 20 (PBST), 50 μl/well of either biotinylated bovine lung heparin or biotinylated porcine mucosal heparan sulfate (Sigma), used at either 1 or 10 μg/ml, was added and incubated for 2 hr at 4° C. Following three washes with PBST, 50 μl/well of europeum-streptavidin (1 ng/ml in PBS/1% BSA) was added for 1 hr at 4° C., the plate again washed three times with PBST, enhancement solution (50 μl/well) added and bound europeum measured by time resolved fluorescence detection using a Delfia Research Fluorometer (Wallac, Turku, Finland). Inhibition assays measured the ability of different sulfated oligosacchandes to inhibit the binding of biotinylated heparan/heparin sulfate to the immobilised lipoprotein lipase enzyme.

[2] = system: serum triglyceride levels; experiment: Serum triglyceride levels in mice 2 hours after a single s.c. dose (dose response); assay type: in vivo, CBA/h female mice; conditions: single s.c. doses of 10 mg/kg and above (10, 20, 50, 100 mg/kg), 2 hours after injection
Method: FIG. 2. Effect of different single doses of sulfated mannopentaose phosphate (PI-88) (10-100 mg/kg) on serum triglyceride levels 2 hours following s.c. injection. Data presented as group means±SEM (n=4).
Thus, 20 CBA/h female mice 8-10 weeks old were weighed and placed into five groups, containing four mice each based on weight. The control group was injected with sterile normal saline solution 100 μl s.c. The respective treatment groups were injected with sulfated mannopentaose phosphate at doses of 10, 20, 50 or 100 mg/kg s.c. in a volume of 100 μl of sterile normal saline solution. Two hours following injection, mice were anaesthetised and blood was collected via cardiac puncture and allowed to clot and serum triglyceride levels were measured using a commercially available kit (Sigma, Triglyceride—GPO-Trinder).

[3] = system: blood triglyceride levels; experiment: Blood triglyceride levels in mice under continuous infusion by mini-osmotic pump; assay type: in vivo, CBA/h female mice
Method: Thus, 10 CBA/h female mice 8-10 weeks old were weighed and divided into two groups of 5 mice each based on weight. Mice in the control group were implanted subcutaneously with a mini-osmotic pump (Alzet 2001) containing sterile normal saline solution. Mice in the treatment group were implanted subcutaneously with a mini-osmotic pump containing the sulfated mannopentaose phosphate which delivered the sulfated mannopentaose phosphate at a dose of 50 mg/kg/day. At the end of the 7 day period over which the mini-osmotic pumps delivered their payload, blood (50 μl) was collected from the tail veins of mice from both groups and assayed for triglycerides (Sigma, Triglyceride—GPO-Trinder). Triglyceride levels in the blood from mice in the control group averaged 1.49±0.23 mM and triglyceride levels in the blood of mice in the treatment group averaged 1.01±0.07 mM. One week following the treatment period, blood triglyceride levels were measured again in each group and levels in the treatment group had returned to normal, or those approximating the control group. Thus, at this point levels of triglycerides in the blood of mice in the control group averaged 1.29±0.08 mM and levels of triglycerides in the blood of mice in the treatment group averaged 1.27±0.06 mM.

[4] = system: serum triglyceride levels; experiment: Time course of serum triglyceride levels in mice after a single s.c. dose; assay type: in vivo, CBA/h female mice; conditions: single 50 mg/kg s.c.
Method: FIG. 1. Time course of the effect of a single s.c. dose (50 mg/kg) of sulfated mannopentaose phosphate (PI-88) on serum triglyceride levels, as measured by the Sigma triglyceride assay. Data presented as group means±SEM (n=4).
Thus, 32 CBA/h female mice 8-10 weeks old were weighed and placed into eight groups, containing four mice each based on weight. The control group was injected with sterile normal saline solution 100 μl s.c. All the treatment groups were injected with sulfated mannopentaose at a dose of 50 mg/kg s.c. in a volume of 100 μl of sterile normal saline solution. At 0.5, 1, 2, 3, 6, 24 and 48 hours following injection mice were anaesthetised and blood was collected via cardiac puncture and allowed to clot and serum triglyceride levels were measured using a commercially available kit (Sigma, Triglyceride—GPO-Trinder).

sulfated mannopentaose phosphate [PI-88 (15 SO4/molecule)]
IC50, inhibition of binding of Biotinylated Heparin (1 μg/ml) to lipoprotein lipase ([1]; biotinylated bovine lung heparin 1 μg/ml): 1 µg/mL | IC50, inhibition of binding of Biotinylated Heparin (10 μg/ml) to lipoprotein lipase ([1]; biotinylated bovine lung heparin 10 μg/ml): 3 µg/mL | IC50, inhibition of binding of Biotinylated Heparan Sulfate (10 μg/ml) to lipoprotein lipase ([1]; biotinylated porcine mucosal heparan sulfate 10 μg/ml): 0.1 µg/mL | inhibitory activity on lipoprotein lipase binding to heparin/heparan sulfate, in words ([1]; summary of Table 1): potent inhibitors | reduction in blood triglyceride levels, in words [2]: significant reduction | triglyceride levels in the blood ([3]; 50 mg/kg/day by s.c. mini-osmotic pump, end of 7 day period, control 1.49±0.23): 1.01 ± 0.07 mM | triglyceride levels in the blood ([3]; one week following the 7 day infusion of 50 mg/kg/day, control 1.29±0.08): 1.27 ± 0.06 mM | time to significant reduction in blood triglyceride levels [4]: ≤ 0.5 h | time until which triglyceride levels continued to fall (maximum lowering) [4]: 2 h | triglyceride levels versus controls, in words ([4]; 6 hours after injection): significantly lower than controls | triglyceride levels versus controls, in words ([4]; 24 hour time point): returning to normal
